Data reported in patent US20230054895A1, “METHODS FOR INDUCING BIOSTASIS IN A CELL, TISSUE OR ORGAN” (PRESIDENT AND FELLOWS OF HARVARD COLLEGE, priority 2020, published 2023).
Entries after “also recorded” stand apart in the source; their conditions may differ. Structures can show the parent of a compound that is named as a salt. Where two headings read alike, the source gives them in different places.

Tests used:
Xenopus tadpoles [1] = assay: Oxygen consumption of Xenopus tadpoles and embryos; type: in vivo, Xenopus laevis
Xenopus tadpoles [2] = type: in vivo; conditions: 50 uM for 30 min, recovery, tested over 24 h
Protocol: Tadpoles were then tested over a 24 h period in an automated behavior and cognitive testing platform to measure cognitive or motor function.
Finally, the cognitive and motor function performance of Xenopus tadpoles treated with Donepezil was assessed. […] Following the onset of stasis, the drug was removed and tadpoles were allowed to recover. Tadpoles were then tested over a 24 hour period in an automated behavior and cognitive testing platform to measure whether tadpoles that previously went through stasis had decreased cognitive and motor function performance.

Xenopus embryos = test system: Xenopus embryos
Text: Developed tail length assay are used to assess embryo tail development during drug contact.
Automated embryo culture and imaging platform with machine vision processing. Analysis pipeline allows screening scale-up to hundreds of embryos at a given time.
The effects of ^2H2O on metabolism were examined in relation to biostasis in vivo. Xenopus embryos were contacted with 0.1×MMR media prepared with various concentrations of ^2H2O.

Xenopus tadpoles [3] = assay: Movement / swimming of Xenopus tadpoles (stasis and reversal); type: in vivo, Xenopus laevis
Protocol: This slowing of motion is reversible; average movement of the Xenopus tadpoles is returned to pre-treatment levels following removal of Donepezil. […] The drug is removed at 30 minutes, as indicated by the hash-line. Movement resumed within 50 min after drug removal.
To determine if this slowing of movement is reversible, the drug was removed from the culture medium after 30 minutes (denoted by the hashed-line). Movement resumed at the pre-treatment level within 50 min after drug removal.
The effects of SNC-80 and the NCX1 inhibitor KB-R7943 mesylate (also referred to herein as “WC-60) were evaluated alone and in combination. Tadpoles were exposed to SNC-80 at 25 μM for 24 hr continuously, and swimming was assessed. […] Similarly, no effect on oxygen consumption was observed when tadpoles were exposed to KB-R7943 mesylate at 35 uM for 24 h continuously (FIG. 25B).

Xenopus tadpoles [4] = assay: Oxygen consumption of Xenopus tadpoles and embryos; type: in vivo, Xenopus laevis; remark: listed apart in the source
Text: Dynamic drug dosing used to examine stasis control parameters (10 tadpoles/chamber, n=3 replicates).
The oxygen consumption assay described herein above was used.

mice = conditions: FIG. 1, Rawls and Cowan 2006; cited from earlier work
[5] = high doses; cited from earlier work
pig hind limb = assay: Pig hind limb ex vivo perfusion on ULiSSES Platform (biostasis of a pig limb)
Protocol: Protocol for Evaluating the Effect of an Agent on Inducing Biostasis of a Pig Limb.
The establishment of biostasis in a mammal according to the methods described herein was evaluated in a pig limb model. Prior to removing a hind limb from the animal, a pre-operation blood draw was preformed to obtain a baseline. The hind limb was removed via an amputation, and four muscle biopsies were immediately taken. For use in RT-PCR, a first biopsy was stored at −80° C. to preserve RNA integrity. For histology, a second biopsy was fixed in formalin and stored at 2-4° C. or at room temperature. For use in ELISA, a third biopsy was snap frozen and stored at −80° C. Finally, in lieu of Microdialysis, a fourth biopsy was snap frozen and stored at −80° C.
The limb was first flushed with 4° C. heparinized Krebs Henseleit Buffer alone. The limb was then weighed and attached to the ULiSSES Platform. The Platform was run subnormothermic relative to […] (e.g., 18-23° C.). During the protocol, the limb was perfused with buffer alone (control) or buffer with SNC-80. Further description of the ULiSSES Platform can be found on the world wide web at www.techbriefs.com/component/content/article/tb/stories/blog/35406.
Following the limb being attached to the platform (time 0 hour), an RNA-preserving biopsy, a formalin-fixed biopsy, and a snap frozen biopsy were taken, and a perfusate sample was also taken. The “perfusate sample” is a sample that is assessed for arterial and […] blood gases, and subjected to a blood chemistry panel to measure sodium, potassium, glucose, and lactate levels. The perfusate sample is further snap frozen for other analyses, including RNAseq and cytokine analysis.
These sampling steps were further repeated at times 3 hours, 6 hours, 12 hours, and 24 hours. At times 9 hours, 15 hours, 18 hours, and 21 hours, a perfusate sample was taken.
The protocol was completed at time 24 hours. The limb was removed from the ULiSSES Platform and weighed. Separate, proof of concept experiments were performed as described above, but were completed at time 6 hours.

Caco-2 cells [6] = assay: NAD/NADH live reporting in Caco-2 cells; type: cell-based; conditions: 100 uM, p<0.0005, comparable to positive control sodium oxamate
Caco-2 cells [7] = assay: Respiration / oxygen utilization in Caco-2 cells; type: cell-based
Xenopus tadpoles [8] = assay: Movement / swimming of Xenopus tadpoles (stasis and reversal); type: in vivo, Xenopus laevis; remark: listed apart in the source
Caco-2 cells [9] = assay: Intracellular ATP in Caco-2 cells; type: cell-based
rats = conditions: via delta-2 opioid receptor; cited from earlier work
tadpoles = assay: Life span of tadpoles in low-oxygen environments; type: in vivo, Xenopus; conditions: 50% ^2H2O-treated tadpoles; MMR controls 6 hours
Protocol: At the indicated consumption rate, ^2H2O-treated tadpoles survive for >30 hours as compared to 6 hours for MMR controls.

Xenopus tadpoles [10] = assay: Recovery from Donepezil-induced biostasis in tadpoles (tail length, oxygen consumption); type: in vivo; conditions: 50 mM kestose in MMR vs MMR alone
Protocol: To determine if an agent plays a role in accelerating recovery following induction of biostasis, tadpoles can be treated with a biostasis-inducing agent as described herein, to induce biostasis and then transferred to a medium containing a test agent, or just medium. Recovery is assessed by assessing development rate following recovery (e.g., by measuring tadpole tail length), movement, and oxygen consumption.

[11] = 25 μM SNC-80, 24 hr continuously
[12] = compared to control treated limb
[13] = perfusate, vs control treatment
[14] = prior to and following treatment
[15] = 50% ^2H2O, 4 days biostasis, 3 days of recovery

For `CCN(CC)CCCN(c1ccccc1)C1Cc2ccccc2C1` [Aprindine], the “oxygen consumption of free swimming tadpoles” value (Xenopus tadpoles [1]; 25 uM, after 20 min of exposure, vs vehicle controls) was “decreased oxygen consumption”.

For `COc1cc2c(cc1OC)C(=O)C(CC1CCN(Cc3ccccc3)CC1)C2` (stereo not shown) [Donepezil, 2-((1-Benzylpiperidin-4-yl)methyl)-5,6-dimethoxy-2,3-dihydro-1H-inden-1-one], the cognitive performance (Xenopus tadpoles [2]) was “may have slightly improved cognitive performance”, the tail length (Xenopus embryos; Xenopus tadpoles, compared to vehicle control or SNC-80) was “reduced tail length” and the “time to slowing of motion after drug addition” value (Xenopus tadpoles [3]; 50 uM Donepezil) was at most 10 min. The “time to resumption of movement after drug removal” value (Xenopus tadpoles [3]; 50 uM Donepezil removed at 30 minutes) was at most 50 min.

In the case of `N=C(N)SCCc1ccc(OCc2ccc([N+](=O)[O-])cc2)cc1` [KB-R7943 mesylate], the “oxygen consumption in tadpoles” value (Xenopus tadpoles [1]; 35 μM KB-R7943 mesylate, 24 h continuously) is reported as “no effect”, the “oxygen consumption in tadpoles” value (Xenopus tadpoles [1]; 35 μM KB-R7943 mesylate, 24 h continuously, listed as KB-R7943 Mesylate) is reported as “No change” and the swimming (Xenopus tadpoles [3]; KB-R7943 mesylate, data not shown) is reported as “decreased swimming”.

For `Oc1ccc2c3c1O[C@H]1c4[nH]c5ccccc5c4C[C@@]4(O)[C@@H](C2)N(CC2CC2)CC[C@]314` [Naltrindole], the “blocking of the stasis-inducing effects of SNC-80” value (Xenopus tadpoles [1]; concentrations up to 100 uM, 4 h of exposure) was “does not block”.

With `C=CCN1C[C@H](C)N([C@H](c2ccc(C(=O)N(CC)CC)cc2)c2cccc(OC)c2)C[C@H]1C` [SNC-80, (+)-4-[(αR)-α-((2S,5R)-4-Allyl-2,5-dimethyl-1-piperazinyl)-3-methoxybenzyl]-N,N-diethylbenzamide] the “delay in impacting oxygen metabolism” value (Xenopus tadpoles [4]; 60 μM dose, dynamic dosing, 10 tadpoles/chamber, n=3) was about 10 min, the “oxygen consumption and other metrics of metabolic rate” value (Xenopus tadpoles [4]; healthy tissues and Xenopus tadpoles, dose dependence) was “dose-dependent reduction in oxygen consumption” and the “oxygen consumption in tadpoles” value (Xenopus tadpoles [1]; [11]) was “No change; also recorded: normal”. The “oxygen consumption of embryos” value (Xenopus tadpoles [1]; Xenopus embryos, FIG. 7) was “reduces oxygen consumption”, the “oxygen consumption in tadpoles” value (Xenopus tadpoles [1]; stasis inducing concentration of SNC-80 in combination with 100 uM Naltrindole) was “remains decreased” and the hypothermia (mice) was “induces hypothermia”. For the same compound, the convulsions [5] was “produces convulsions at high doses”, the “relative metabolic rate in hind limb” value (pig hind limb; 3 hours post treatment, slope vs control P<0.0001) was “marked reduction of metabolic rate; also recorded: noticeable reduction” and the “oxygen uptake in hind limb” value (pig hind limb; 10 hours post-treatment, vs control treated limb) was “noticeable reduction”. The “oxygen uptake in hind limb” value (pig hind limb; 24 hours post-treatment, vs control treated limb) was “marked reduction”, the “change in mass of limb prior to and following treatment” value (pig hind limb; [12]) was “larger change in a mass; also recorded: greater difference” and the “oxygen uptake in hind limb” value (pig hind limb; [12]) was “markedly reduces oxygen uptake”. The “oxygen uptake levels relative to hypothermic conditions” value (pig hind limb; data not shown) was “greater extent than hypothermic conditions”, the glucose level (pig hind limb; [13]) was “No change; also recorded: not a marked difference” and the lactate level (pig hind limb; [13]) was “No change; also recorded: not a marked difference”. The potassium level (pig hind limb; [13]) was “No change; also recorded: not a marked difference”, the “glycogen content inside the cells (PAS, optical density)” value (pig hind limb; [14]) was “remains at a basal level” and the “intercellular edema (histology of limb muscle)” value (pig hind limb; [14]) was “increase in intercellular edema”. For the same compound, the “muscle bundle area (histology)” value (pig hind limb; [14]) was “did not increase significantly”, the “relative metabolic rate in hind limb” value (pig hind limb; vs control (perfusion medium alone)) was “markedly reduces metabolic rate” and the NAD/NADH ratio (Caco-2 cells [6]) was “significant increase”. For the same compound, the “reduction of embryo length compared to control” value (Xenopus embryos; 0.4 μM SNC-80 (n=5) vs control (n=6), end of dosing period t=48 h) was 19.8%, the “embryo length after drug removed” value (Xenopus embryos; 0.4 μM SNC-80, after drug removal) was “caught up to controls” and the “respiration / oxygen utilization” value (Caco-2 cells [7]) was “did not inhibit oxygen utilization”. For the same compound, the “respiration / oxygen utilization” value (Caco-2 cells [7]; listed as SNC80) was “respiration unchanged”, the “biostatic effect in Xenopus laevis tadpoles” value (Xenopus tadpoles [8]; FIG. 8) was “reversible biostatic effect” and the “concentration resulting in arrest of tadpole movement” value (Xenopus tadpoles [8]; Xenopus tadpoles) was over 100 µM. The “movement of whole animals” value (Xenopus tadpoles [8]; high-dose administration) was “completely arrested”, the “intracellular ATP” value (Caco-2 cells [9]) was “reduction in intracellular ATP levels” and the “intracellular ATP” value (Caco-2 cells [9]; listed as SNC80) was “reduces intracellular ATP”. For the same compound, the induction of biostasis (Xenopus tadpoles [3]; 25 μM SNC-80) was “not sufficient to induce biostasis”, the swimming (Xenopus tadpoles [3]; [11]) was “normal swimming” and the “reversibility of movement arrest” value (Xenopus tadpoles [3]; removal / withdrawal of the drug) was “reversed upon withdrawal of the drug; also recorded: reversed by removal of the drug”. For the same compound, the hypothermia (rats) was “induce hypothermia”.

In the case of `[2H]O[2H]` [^2H2O, Deuterium oxide], the “oxygen consumption of embryos” value (Xenopus tadpoles [1]; 50% ^2H2O, within hours of contact) is reported as “reduced oxygen consumption”, the “survival in low-oxygen environment at the indicated consumption rate” value (tadpoles) is reported as over 30 h and the embryo length (Xenopus embryos; 50% ^2H2O in 0.1×MMR) is reported as “marked reduction in embryo length”. The “adverse effects after recovery” value (Xenopus embryos; [15]) was “do not exhibit adverse effects”, the “developmental state after recovery” value (Xenopus embryos; [15]) was “remain developmentally delayed” and the “concentrations with no effect on tail length” value (Xenopus embryos; Xenopus embryos) was under 50%. For the same compound, the “concentrations that were toxic” value (Xenopus embryos; Xenopus embryos, data not shown) was over 70%, the “time to slowed swimming” value (Xenopus tadpoles [8]; 50% ^2H2O) was at most 10 min and the “concentrations that were toxic” value (Xenopus tadpoles [8]; tadpoles) was over 70%. The “swimming after return to normal media” value (Xenopus tadpoles [8]; without ^2H2O, data not shown) was “returned to normal” and the “concentrations with no effect on swimming” value (Xenopus tadpoles [3]; tadpoles) was under 50%.

In the case of `OC[C@H]1O[C@@](CO)(OC[C@@]2(O[C@H]3O[C@H](CO)[C@@H](O)[C@H](O)[C@H]3O)O[C@H](CO)[C@@H](O)[C@@H]2O)[C@@H](O)[C@@H]1O` [kestose], the “recovery from biostasis induced via Donepezil” value (Xenopus tadpoles [10]) is reported as “faster recovery”.
